From the supplement of paper PMC9663587

Columns and labels:
[1] = compound: T1, CN1CC[C@H](c2c(O)cc(O)c3c(=O)cc(-c4ccccc4Cl)oc23)[C@H](O)C1 [Flavopiridol]
[2] = compound: COc1cccc2c1C(=O)c1c(O)c3c(c(O)c1C2=O)C[C@@](O)(C(=O)CO)C[C@@H]3O[C@H]1C[C@H](N)[C@H](O)[C@H](C)O1 [Doxorubicin]
[3] = compound: CC(C)NC[C@@H](C(=O)N1CCN(c2ncnc3c2[C@H](C)C[C@H]3O)CC1)c1ccc(Cl)cc1 [Ipatasertib/GDC0068]
[4] = compound: CCNC(=O)c1noc(-c2cc(C(C)C)c(O)cc2O)c1-c1ccc(CN2CCOCC2)cc1 [Luminespib/NVP-AUY922]
[5] = compound: O=C(c1cc(Cc2n[nH]c(=O)c3ccccc23)ccc1F)N1CCN(C(=O)C2CC2)CC1 [Olaparib/AZD2281]
[6] = compound: CN(C)CC[C@H](CSc1ccccc1)Nc1ccc(S(=O)(=O)NC(=O)c2ccc(N3CCN(Cc4ccccc4-c4ccc(Cl)cc4)CC3)cc2)cc1[N+](=O)[O-] [ABT-737]
[7] = compound: CC(=O)O[C@H]1C(=O)[C@@]2(C)[C@H]([C@H](OC(=O)c3ccccc3)[C@]3(O)C[C@H](OC(=O)[C@H](O)[C@@H](NC(=O)c4ccccc4)c4ccccc4)C(C)=C1C3(C)C)[C@]1(OC(C)=O)CO[C@@H]1C[C@@H]2O [Paclitaxel]
[8] = compound: Cc1nc(-c2cn3c(n2)-c2ccc(-c4cnn(C(C)(C)C(N)=O)c4)cc2OCC3)n(C(C)C)n1 [Taselisib/GDC0032]
[9] = compound: CN(C)C/C=C/C(=O)Nc1ccc(O[C@@H]2CCC[C@@H](Nc3ncc(Cl)c(-c4c[nH]c5ccccc45)n3)C2)cc1 [BSJ-01-175]
[10] = compound: T1, Flavopiridol; test: GR value, 72 h; higher = faster growth (1 = untreated, <0 = killing);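 further: breast cancer and non-malignant breast epithelial lines, nine half-log doses, viable cells counted by Hoechst and LIVE/DEAD dye imaging versus time-zero plates and DMSO controls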
[11] = compound: CN(C)C(=O)c1cc2cnc(Nc3ccc(N4CCNCC4)cn3)nc2n1C1CCCC1 [LEE011/Ribociclib]; test: as above
[12] = compound: CCN1CCN(Cc2ccc(Nc3ncc(F)c(-c4cc(F)c5nc(C)n(C(C)C)c5c4)n3)nc2)CC1; test: as above
[13] = compound: C=CC(=O)Nc1ccc(C(=O)Nc2[nH]nc3c2CN(C(=O)N[C@H](CN(C)C)c2ccccc2)C3(C)C)cc1 [YKL-5-124]; test: as above
[14] = compound: CC(=O)c1c(C)c2cnc(Nc3ccc(N4CCN(CCOCCOCCOCCNC(=O)COc5cccc6c5C(=O)N(C5CCC(=O)NC5=O)C6=O)CC4)cn3)nc2n(C2CCCC2)c1=O [BSJ-03-123]; test: as above
[15] = compound: CC(=O)c1c(C)c2cnc(Nc3ccc(N4CCNCC4)cn3)nc2n(C2CCCC2)c1=O; test: as above
[16] = compound: CCc1cnn2c(NCc3ccc[n+]([O-])c3)cc(N3CCCC[C@H]3CCO)nc12; test: as above
[17] = compound: CN(C)C/C=C/C(=O)Nc1ccc(C(=O)N2CCC[C@@H](Nc3ncc(Cl)c(-c4c[nH]c5ccccc45)n3)C2)cc1 [THZ531]; test: as above
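Wherever GR50, 72 h is given: breast cancer and non-malignant breast epithelial cell lines, Deep Dye Drop or Dye Drop imaging, nine half-log doses, GR normalized to time-zero plates and DMSO-only controls.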

SUM149
GR50, 72 h [1]: 0.196 µM
GR50, 72 h [2]: 0.00797 µM
GR50, 72 h [3]: 4.56 µM
GR50, 72 h [4]: 0.00516 µM
GR50, 72 h [5]: 3.87 µM
GR50, 72 h [6]: 3.63 µM
GR50, 72 h [7]: 0.00159 µM
GR50, 72 h [8]: 2.55 µM
GR50, 72 h [9]: 0.0356 µM
GR value ([10]; 0.0001 µM): 0.972 GR
GR value ([10]; 0.0003162 µM): 1.01 GR
GR value ([10]; 0.001 µM): 0.951 GR
GR value ([10]; 0.003162 µM): 0.944 GR
GR value ([10]; 0.01 µM): 0.862 GR
GR value ([10]; 0.03162 µM): 0.964 GR
GR value ([10]; 0.1 µM): 0.788 GR
GR value ([10]; 0.3162 µM): 0.177 GR
GR value ([10]; 1 µM): -0.591 GR
GR value ([11]; 0.001 µM): 0.951 GR
GR value ([11]; 0.003162 µM): 0.904 GR
GR value ([11]; 0.01 µM): 0.916 GR
GR value ([11]; 0.03162 µM): 0.885 GR
GR value ([11]; 0.1 µM): 0.776 GR
GR value ([11]; 0.3162 µM): 0.771 GR
GR value ([11]; 1 µM): 0.764 GR
GR value ([11]; 3.162 µM): 0.669 GR
GR value ([11]; 10 µM): 0.599 GR
GR value ([12]; 0.001 µM): 0.973 GR
GR value ([12]; 0.003162 µM): 1.02 GR
GR value ([12]; 0.01 µM): 0.875 GR
GR value ([12]; 0.03162 µM): 0.751 GR
GR value ([12]; 0.1 µM): 0.666 GR
GR value ([12]; 0.3162 µM): 0.562 GR
GR value ([12]; 1 µM): 0.417 GR
GR value ([12]; 3.162 µM): 0.375 GR
GR value ([12]; 10 µM): 0.0944 GR
GR value ([13]; 0.001 µM): 0.351 GR
GR value ([13]; 0.003162 µM): 0.226 GR
GR value ([13]; 0.01 µM): 0.228 GR
GR value ([13]; 0.03162 µM): 0.141 GR
GR value ([13]; 0.1 µM): 0.132 GR
GR value ([13]; 0.3162 µM): 0.114 GR
GR value ([13]; 1 µM): 0.0596 GR
GR value ([13]; 3.162 µM): 0.0431 GR
GR value ([13]; 10 µM): -0.104 GR
GR value ([14]; 0.001 µM): 0.996 GR
GR value ([14]; 0.003162 µM): 0.91 GR
GR value ([14]; 0.01 µM): 0.904 GR
GR value ([14]; 0.03162 µM): 0.794 GR
GR value ([14]; 0.1 µM): 0.81 GR
GR value ([14]; 0.3162 µM): 0.72 GR
GR value ([14]; 1 µM): 0.579 GR
GR value ([14]; 3.162 µM): 0.428 GR
GR value ([14]; 10 µM): 0.0273 GR
GR value ([15]; 0.0003162 µM): 1.02 GR
GR value ([15]; 0.001 µM): 1.03 GR
GR value ([15]; 0.003162 µM): 0.983 GR
GR value ([15]; 0.01 µM): 0.981 GR
GR value ([15]; 0.03162 µM): 0.82 GR
GR value ([15]; 0.1 µM): 0.701 GR
GR value ([15]; 0.3162 µM): 0.623 GR
GR value ([15]; 1 µM): 0.567 GR
GR value ([15]; 3.162 µM): 0.485 GR
GR value ([16]; 0.0001 µM): 1.01 GR
GR value ([16]; 0.0003162 µM): 1.04 GR
GR value ([16]; 0.001 µM): 1.01 GR
GR value ([16]; 0.003162 µM): 1.03 GR
GR value ([16]; 0.01 µM): 0.828 GR
GR value ([16]; 0.03162 µM): -0.457 GR
GR value ([16]; 0.1 µM): -0.575 GR
GR value ([16]; 0.3162 µM): -0.578 GR
GR value ([16]; 1 µM): -0.561 GR
GR value ([17]; 0.0001 µM): 0.986 GR
GR value ([17]; 0.0003162 µM): 0.996 GR
GR value ([17]; 0.001 µM): 0.931 GR
GR value ([17]; 0.003162 µM): 1.03 GR
GR value ([17]; 0.01 µM): 1.05 GR
GR value ([17]; 0.03162 µM): 0.999 GR
GR value ([17]; 0.1 µM): 0.963 GR
GR value ([17]; 0.3162 µM): 0.598 GR
GR value ([17]; 1 µM): -0.539 GR
